Paper PMC3425516 (PLoS ONE, 2012)
Where “and” joins values, the source holds several entries; their conditions need not be identical. Equal entries are not always repeated.

Columns and labels:
HCT116 cells [1] = experiment: Western blot histone H3 and α-tubulin acetylation; format: cell-based, human; conditions: 24 h
Method: (§1) For total lysate, cells were lysed with the 120 µL ice-cold lysis buffer [10 mmol/L Tris-HCl (pH 7.4), 150 mmol/L NaCl, 1 mmol/L EGTA, 1 mmol/L phenylmethylsulfonyl fluoride, 10 µg/mL aprotinin, 10 µg/mL leupeptin, 1 mM sodium orthovandate, 1 mM NaF, and 1% Triton X-100]. Cell lysates were centrifuged at 13,000 rpm for 30 min. For Western blot analysis, the amount of protein (40 µg) was separated by electrophoresis in a 10% or 15% polyacrylamide gel and transferred to a polyvinylidene difluoride (PVDF) membrane. After 1 h incubation at room temperature in PBS/5% nonfat milk, the membrane was washed with PBS/0.1% and incubated with the indicated antibodies at 4°C overnight. After washings with PBS/0.1% Tween 20, the corresponding secondary antibodies were applied to the membranes for 1 h at room temperature. The membranes were then washed with PBS/0.1% Tween 20 and the detection of signal was done with an enhanced chemiluminescence detection kit (Amersham, Buckinghamshire, UK).

HCT116 xenograft tumors = experiment: Western blot of HCT116 xenograft tumor tissues; format: in vivo, nude mice; conditions: 200 mg/kg oral daily for 7 days
Method: as §1, with “For Western blot analysis, the amount of protein (40 µg) was separated by electrophoresis in a 10% or 15% polyacrylamide gel and transferred to a polyvinylidene difluoride (PVDF) membrane.” left out
(§2) Once a tumor was palpable with the size of approximately 55 mm^3, mice were randomized into vehicle control and treatment groups (8 mice per group). Control mice received the vehicle (0.5% carboxymethyl cellulose +0.1% Tween 80). Tumors in all 3 groups were allowed to reach an endpoint volume of 1,200 mm^3.

HCT116 cells [2] = experiment: Sulforhodamine B cell growth assay; format: cell-based; conditions: Homo sapiens, HCT-116, 48 h
Method: HCT116, MDAMB231 and NCI-ADR cells were seeded in 96-well plates in medium with 5% fetal bovine serum overnight. Cells were fixed with 10% trichloroacetic representing cell population at the time of drug treatment (T 0). […] Excess Sulforhodamine B was washed away by 1% acetic acid and dye-containing cells were lysed with 10 mmol/L Trizma base. […] By measuring time zero (T 0), control growth (C), and cell growth in the presence of the drug (Tx), the percentage growth was calculated. Percentage growth inhibition was calculated as 100-[(Tx–T 0)/(C-T 0)]×100.

HCT116 cells [3] = experiment: Flow cytometry cell cycle / sub-G1 analysis; format: cell-based, human
Method: After centrifugation, cells were incubated in 0.1 mol/L phosphate-citric acid buffer [0.2 mol/L NaHPO4, 0.1 mol/L citric acid (pH 7.8)] for 20 min at room temperature. Then, the cells were centrifuged and resuspended with 0.5 mL PI solution containing Triton X-100 (0.1%, v/v), RNase (100 µg/mL), and PI (80 µg/mL). DNA content was analyzed with the FACScan and CellQuest software (Becton Dickinson).

[4] = Body weight and adverse effects in xenograft study; format: in vivo, nude mice; conditions: HCT116 xenograft mice, oral daily treatment
Method: (A) Tumors were measured regularly and growth delay was calculated for treatment groups relative to control tumors (TGD). (B) Kaplan-Meier survival analysis was based on the tumor growth endpoint. (C) Inhibition of tumor growth curves represented a mean±SEM and percentage change in mean tumor volume (percent TGI). (D) Body weights were measured daily during the first week and then 2 times per week. The body weight ratio was calculated relative to the baseline measurement.
as §2

[5] = tested on: human HCT116 colorectal cancer xenograft; experiment: HCT116 xenograft, tumor growth delay to 1,200 mm^3 endpoint; format: in vivo, nude mice
Method: The human HCT116 colorectal adenocarcinoma cells used for implantation were harvested during log phase growth and resuspended in phosphate-buffered saline at 5×10^7 cells/mL. Each mouse was injected s.c. in the right flank with 1.0×10^7 cells (0.2 mL cell suspension). Tumors were monitored twice weekly and then daily as their volumes approached 1,200 mm^3. Tumor size, in mm^3, was calculated from: where w = width and l = length in mm of the tumor. Tumor volume = (w^2×l)/2.
The logrank test was used to determine the statistical significance of the difference between the TTE values of two groups, except any NTR deaths. […] The two-tailed statistical analyses were conducted at P = 0.05. Kaplan-Meier plots show the percentage of animals remaining in the study versus time. The Kaplan-Meier plots use the same data set as the logrank test.
as §2

O=C(CCCCCCC(=O)Nc1ccccc1)NO [SAHA, suberoylanilide hydroxamic acid, reference compound]
α-tubulin acetylation (western blot) (HCT116 cells [1]): exhibited more potent α-tubulin acetylation than MPT0E028
expression of caspase 3, PARP, acetyl-histone H3 and acetyl-tubulin in xenograft tumors (HCT116 xenograft tumors): acetyl-µ-tubulin were found more profoundly
GI50 (HCT116 cells [2]): 820 ± 70 nM
sub-G1 population (flow cytometry) (HCT116 cells [3]): weaker effect and delayed cytotoxicity
body weight and other adverse effects [4]: No significant body weight difference or other adverse effects
Median TTE ([5]; 200 mg/kg po qd to endpoint 1200 mm^3): 27.0 days
No. of CR (complete regression) ([5]; 200 mg/kg po qd, 8 mice per group): 0
%TGD (tumor growth delay) ([5]; 200 mg/kg po qd, [(T-C)/C]×100): 63%
T-C ([5]; 200 mg/kg po qd, median TTE treated versus control): 10.0 days and 10 days
